This is an account of results in US5798375A, “Treatment of arteriosclerosis and xanthoma” (Sankyo Company, Limited, priority 1995, dated 1998).

The test system of one test is diabetic animal model. Conditions: in vivo in a diabetic animal model; cited from earlier work.
Test [1] has as its system WHHL rabbits. Put plainly: Example 2: incidence and degree of xanthoma of the four legs. Also noted: Frequency of massive xanthoma: unit not given here. In kind it is in vivo, Male WHHL rabbits. The procedure: (§1) Each test compound was administered for eight months to the rabbits in the form of an aqueous suspension (0.5% carboxymethylcellulose added). In the control group, a 0.5% carboxymethylcellulose solution only was administered.
The incidence and the degree of xanthoma of the four legs were measured.

For test [2], the system named is WHHL rabbits. Put plainly: Example 2: percentage area covered by lesions, aortic arch and whole aorta. To be noted: oral, eight months. Set-up: Lesion Area, Aortic Arch, percentage against the control group / Lesion Area, Total Aorta, percentage against the control group: concentration or dose not given beside the values. In kind it is in vivo, Male WHHL rabbits. The procedure: as §1
The values actually measured are represented by the mean value plus or minus standard error. The numbers in parentheses represent the percentage lesion area against the control group.
*p<0.05, **p<0.01; significant difference against the control group under the [Mann-Whitney's U-Test A significant difference (p<0.05) was observed between Groups B and F, between Groups C and E and between Groups D and F at the aortic arch, and between Groups C and E over the total aorta.

Test [3] relates to WHHL rabbits. Put plainly: Example 2: average thickening of intima in aorta. The test is classed as in vivo, Male WHHL rabbits. Set-up: Average thickening of intima, Aortic Arch, percentage against the control group / Average thickening of intima, Total Aorta, percentage against the control group: concentration or dose not given beside the values. The procedure:
as §1
The values actually measured are represented as the mean value plus or minus a standard error (μm). The numbers in parentheses represent the percentage intimal thickening against the control group. A significant difference was observed between Groups D and F at the aortic arch, and between Groups C and E and between Groups D and F over the total aorta (p<0.05) under the Mann-Whitney's U-Test.
The average thickening of the intima is calculated by the cross-sectional area of the aortic tunica intima one section from the arch and two sections from the thoracic and abdominal portions, divided by the length of the tunica media.

The subject of test [4] is WHHL rabbits. Put plainly: Example 2: aortic cholesterol content. The test is classed as in vivo, Male WHHL rabbits. The procedure:
as §1
The aortic cholesterol content was measured The tunica media and tunica intima at the aortic arch and at the thoracic and abdominal aorta were peeled away with tweezers and cut into pieces. The pieces were extracted with a 2:1 by volume mixture of chloroform and methanol.
The chloroform phase was separated and evaporated to dryness and the residue was dissolved in isopropanol. The total cholesterol and the free cholesterol were measured by a conventional enzymatic method.
Data are expressed by the mean plus or minus standard error (mg/g tissue). The values in parentheses indicate the percentage against the control. A significant difference against the control group was observed by the unpaired student t-test: […]

A short description of test [5]: Example 2: serum cholesterol in WHHL rabbits. To be noted: Groups C and D (pioglitazone 20 mg/kg; Compound A 10 mg/kg). The test is classed as in vivo, Male WHHL rabbits. The procedure: as §1
For test [6], the system named is Male New Zealand white rabbits. Put plainly: Example 3: regression of established atherosclerotic lesions in the cholesterol-fed rabbit model. The test is classed as in vivo. The procedure:
The rabbits were grouped randomly (3-9 animals per group) and the test samples were administered orally for two months, while they were fed with a normolipidaemic diet. […] The results are shown in terms of the percentage of lesion area in the thoracic aorta.

Setting [7] is: oral, eight months, control 100 (14/14), *p < 0.05, **p < 0.01 vs control.

As to `CN(CCOc1ccc(CC2SC(=O)NC2=O)cc1)c1ccccn1` (stereo not shown) [BRL-49653, 5-{4-[2-methyl-2-(pyridin-2-ylamino)ethoxy]benzyl}-2,4-thiazolidinedione], in the test on diabetic animal model, the “potency higher than that of troglitazone” value is “about 100 times”.
With `CC(=NOCCOc1ccc(CC2SC(=O)NC2=O)cc1)c1ccc(-c2ccccn2)cc1` (stereo not shown) [Compound A, 5-(4-{2-[1-(4-2'-pyridyl-phenyl)ethylideneaminooxy]ethoxy}benzyl)thiazolidine-2,4-dione], the “Frequency of massive xanthoma” value with WHHL rabbits [1] (control 57, *p < 0.05, **p < 0.01 vs control) is reported as 21. Also, the “incidence of xanthoma” value in the test with WHHL rabbits [1] (forelegs and hindlegs) is listed as “slightly less frequent incidence of xanthoma”. In the test on WHHL rabbits [1] (number of legs, control 0), the “Distribution of severity of lesion: (-) no lesions” value turned out to be 3. Besides, the “Distribution of severity of lesion: (+++) severe lesion” value in the test with WHHL rabbits [1] (number of legs, control 6) was 0. For the same compound, the “Distribution of severity of lesion: (++) moderate lesion” value with WHHL rabbits [1] (number of legs, control 10) stood at 6. Moreover, in the test with WHHL rabbits [1] (number of legs, control 12), the “Distribution of severity of lesion: (+) slight lesion” value came out at 19. For the same compound, in the test on WHHL rabbits [1] (setting [7]), the “Incidence of xanthoma, Forelegs” value turned out to be 93% and the “Incidence of xanthoma, Hindlegs” value is recorded as 86%. The “Incidence of xanthoma, Total” value in the test with WHHL rabbits [1] (oral, eight months, control 100 (28/28), *p < 0.05, **p < 0.01 vs control) was determined as 89%. Also, in the test with WHHL rabbits [2] (number in parentheses), the “Lesion Area, Aortic Arch, percentage against the control group” value worked out at 77% and the “Lesion Area, Total Aorta, percentage against the control group” value is 76%. The “Lesion Area, Total Aorta” value with WHHL rabbits [2] (pravastatin 50, pioglitazone 20, Compound A 10 mg/kg, mean ± standard error, *p<0.05, **p<0.01 vs control) is given as 38 ± 8%. In addition, the “Lesion Area, Aortic Arch” value in the test with WHHL rabbits [2] (pravastatin 50, pioglitazone 20, Compound A 10 mg/kg, mean ± standard error, control 82 ± 5, *p<0.05, **p<0.01 vs control) was determined as 63 ± 9%. The “suppression of intimal thickening” value in the test on WHHL rabbits [3] (combinations compared with Groups C and D) is recorded as “no suppression of hypertrophy”. In addition, in the test with WHHL rabbits [3] (number in parentheses), the “Average thickening of intima, Aortic Arch, percentage against the control group” value is given as 123% and the “Average thickening of intima, Total Aorta, percentage against the control group” value is 105%. The “Average thickening of intima in aorta, Total Aorta” value with WHHL rabbits [3] (oral, eight months, pravastatin 50, pioglitazone 20, Compound A 10 mg/kg, mean ± standard error, control 154 ± 33) was determined as 162 ± 22 μm. The “Average thickening of intima in aorta, Aortic Arch” value in the test with WHHL rabbits [3] (oral, eight months, pravastatin 50, pioglitazone 20, Compound A 10 mg/kg, mean ± standard error, control 237 ± 63) was 291 ± 51 μm. Further, in the test on WHHL rabbits [4] (mean ± standard error, control 5.3 ± 1.7), the “Cholesterol level of Thoracic and Abdominal Aorta, Esterified” value was determined as 4.9 ± 0.9 mg/g tissue. Besides, the “Cholesterol Content of Aortic Arch, Esterified” value in the test on WHHL rabbits [4] (mean ± standard error, control 6.5 ± 1.4, *p < 0.05) came out at 4.5 ± 1.3 mg/g tissue. For the same compound, in the test with WHHL rabbits [4] (mean ± standard error, control 14.8 ± 2.3, *p < 0.05 vs control), the “Cholesterol level of Thoracic and Abdominal Aorta, Free” value came to 9.2 ± 1.0 mg/g tissue. Further, the “Cholesterol level of Thoracic and Abdominal Aorta, Total” value with WHHL rabbits [4] (mean ± standard error, control 20.1 ± 2.3, *p < 0.05, **p < 0.02 vs control) was found to be 14.0 ± 1.7 mg/g tissue. For the same compound, in the test on WHHL rabbits [4] (mean ± standard error, control 20.6 ± 2.9), the “Cholesterol Content of Aortic Arch, Free” value is on record as 16.9 ± 1.8 mg/g tissue. The “Cholesterol Content of Aortic Arch, Total” value in the test on WHHL rabbits [4] (mean ± standard error, control 27.1 ± 3.3) is 21.4 ± 0.7 mg/g tissue. Besides, in the test with WHHL rabbits [4] (number in parentheses), the “Cholesterol Content of Aortic Arch, Esterified, percentage against the control” value stood at 69%; the “Cholesterol Content of Aortic Arch, Free, percentage against the control” value was 82%; the “Cholesterol Content of Aortic Arch, Total, percentage against the control” value turned out to be 79%; the “Cholesterol level of Thoracic and Abdominal Aorta, Esterified, percentage against the control” value came to 92%. In the test with WHHL rabbits [4] (number in parentheses), the “Cholesterol level of Thoracic and Abdominal Aorta, Free, percentage against the control” value worked out at 62%; the “Cholesterol level of Thoracic and Abdominal Aorta, Total, percentage against the control” value stood at 70%. The “reduction of the serum cholesterol levels” value in test [5] was “no reduction”. Besides, the “Rate of lesion area, against the control group” value in test [6] (2.5 mg/kg, figure in parentheses) is listed as 93. Besides, in test [6] (thoracic aorta, 2.5 mg/kg oral, two months, mean ± standard error, control 29 ± 20), the “Rate of lesion area” value came out at 27 ± 7%.
